# Laboratory results taken from patent US6774143B1, “Method for treating cells resistant to antineoplastic agents” (Novartis AG, priority 2003, dated 2004).
# Experiments:
# [1] = tested on: MIP 101 human colon tumor xenograft; assay: Subcutaneous MIP 101 colon tumor model in athymic nude mice; assay type: in vivo; conditions: for fate of the animals: all animals
# Description: All cell lines that are used in animal studies are free of Mycoplasma contamination (Rapid Detection System by Gen-Probe, Inc., San Diego, Calif.) and viral contamination (MAP testing by MA BioServices, Inc., Rockville, Md.). The HCT-15 human colon tumor cell line is purchased from the American Type Culture Collection, Rockville, Md., Accession Number ATCC CCL 225. The MIP 101 human colon tumor cell line is obtained from Dr. R. Kramer (Bristol Meyers Squibb) and was previously described (Niles R M, et al. Cancer Invest. 1987;5(6):545-52). These cells are Pgp-1 (human Pgp) overexpressors, making the cells resistant to paclitaxel. All cell lines are propagated and expanded in RPMI 1640 medium containing 10% heat-inactivated FBS (Life Technologies, Grand Island, N.Y.). Cell expansions for implantation are performed in T225 tissue culture flasks. Cells are harvested at 70-90% confluency, washed once with HBSS containing 10% FBS, and are suspended in plain HBSS.
# Outbred athymic (nu/nu) female mice (“Hsd:Athymic Nude-nu” from Harlan Sprague Dawley, Indianapolis, Ind.) are anesthetized with Metofane (Mallinckrodt Veterinary, Inc., Mundelein, Ill.,). A cell suspension (100 μL) containing 1×10^6 cells is then injected sc into the right axillary (lateral) region of each animal. Tumors are allowed to grow until a volume of approximately 100 mm^3 was achieved. At this point, mice bearing tumors are sorted into groups of eight for the study. The sorting process produced groups balanced with respect to mean and range of tumor size.
# Discodermolide is isolated from the sponge Discodermia dissoluta using the methods of (Gunasekera S P, et al. supra). Multiple batches of compound of similar purity (all>95% pure, as determined by mass spectrometry, and nuclear magnetic resonance analysis) are used throughout the various studies. Solid discodermolide is dissolved in pure ethanol to create a stock solution which is diluted just before dosing with Cremophor EL (Crm) and D5W to a final concentration of 16.7% Cremophor EL, 8.3% ethanol and 75% D5W. The compound is administered intravenously (iv). In the first study discodermolide is tested against both tumors at five different dosing schedules: (i.) 30 mg/kg dosed as two 15 mg/kg injections on day 1 of the experiment, (ii.) 30 mg/kg dosed as three 10 mg/kg injections on days 1, 2, and 3, (iii.) 15 mg/kg dosed as a single injection on day 1, (iv.) 20 mg/kg dosed as a 15 mg/kg injection on day 1, followed by a 5 mg/kg injection on day 11, and (v.) 10 mg/kg dosed as a 7.5 mg/kg injection on day 1 followed by a 2.5 mg/kg injection on day 11. In the second study discodermolide is dosed as one injection on the first day of the experiment, at 2.5 mg/kg, 5 mg/kg, 7.5 mg/kg, 10 mg/kg, 12.5 mg/kg, or 15 mg/kg. In addition the 7.5 mg/kg injection on day 1 followed by a 2.5 mg/kg injection on day 11 is repeated from the first study. The actual doses, regimens and routes of administration used for the specific models are discussed in each section separately. Positive control animals receive clinical formulations of paclitaxel (TAXOL) diluted 4-fold with D5W and administered iv once daily for five consecutive days. Vehicle control for paclitaxel is administered according to paclitaxel's schedule. In the first study vehicle controls for discodermolide (16.7% Cremophor EL, 8.3% ethanol and 75% D5W) are administered as three daily injections on days 1, 2, and 3, or as two injections on days 1, and 11. In the second study vehicle control for discodermolide is administered as a single injection on day 1.
# Tumors are measured, and individual animal body weights are recorded once weekly. Standard experiments are conducted for 3 full weeks from the initial dosing.
# Antitumor activity is expressed as % T/C (comparing Δ tumor volumes for treatment group to vehicle control group). […]
# [2] = In vivo hollow fiber assay, body weight of the animals; parameters: species or system mice; conditions: both experiments
# Protocol: Outbred athymic (nu/nu) female mice (“Chrls:Athymic Nude-nu”, Charles River Laboratories, Wilmington, Mass.) are anesthetized with ip injections of Ketamine/Xylazine (150 mg/kg, and 12 mg/kg body weight, respectively). For the subcutaneous implantation an 11-gauge trocar containing one or two hollow fibers is inserted into an incision made with scissors at the nape of the neck of an animal, and fibers are released by retracting the trocar while depressing the plunger. This procedure is repeated until all three hollow fibers are implanted. One wound clip is used to close the skin incision After the surgery each animal receives a single, subcutaneous injection of 0.4 mg/kg butorphenol to relieve any potential pain. Animals recover from the anesthesia on a heating pad, before retuning to their cages.
# One day after the implantation (3 hollow fibers/animal, each hollow fiber containing one cell line: LS 174T, 1A9, and 1A9PTX22) animals are randomly sorted into five groups of six mice/group. […]
# Discodermolide is isolated from the sponge Discodermia dissoluta using the method of Gunasekera SP (supra). Multiple batches of compound of similar purity (all>95% pure, as determined by mass spectrometry, and nuclear magnetic resonance analysis) are used throughout the various studies. […]
# [3] = first study, 7.5 mg/kg day 1 + 2.5 mg/kg day 11
# [4] = first study, discodermolide iv single 15 mg/kg injection on day 1
# [5] = first study, two 15 mg/kg injections on day 1 (30 mg/kg total)
# [6] = second study, 7.5 mg/kg day 1 + 2.5 mg/kg day 11
compound,measurement,setting,value
"C=C/C=C\[C@H](C)[C@H](OC(N)=O)[C@@H](C)[C@H](O)[C@@H](C)C/C(C)=C\[C@H](C)[C@@H](O)[C@@H](C)/C=C\[C@@H](O)C[C@@H]1OC(=O)[C@H](C)[C@@H](O)[C@H]1C [discodermolide, (+)-Discodermolide]",inhibition of tumor growth (in words),"[1]; MIP 101 xenograft, athymic nude mice",statistically significant (p<0.01) and reproducible inhibition of tumor growth
same,T/C,[1]; [3],38%
same,body weight loss,[1]; [3],21.3%
same,fate of the animals,"[1]; first study, 15 mg/kg day 1 + 5 mg/kg day 11",sacrificed in the beginning of the third week of the experiment due to the excessive body weight loss
same,fate of the animals,"[1]; first study, 30 mg/kg as three 10 mg/kg injections on days 1, 2, 3",die on day 5 of the experiment
same,T/C,[1]; [4],36%
same,body weight loss,[1]; [4],18.9%
same,T/C,[1]; [5],24%
same,body weight loss,[1]; [5],23.4%
same,T/C,[1]; [6],35%
same,body weight loss,[1]; [6],11.4%
same,deaths,[1]; [6],One animal in that group dies from apparent drug toxicity
same,body weight loss,"[1]; second study, single injection 2.5 mg/kg",7.9%
same,T/C,"[1]; second study, single injection 2.5 mg/kg day 1",59%
same,body weight loss,"[1]; second study, single injection 5 mg/kg",10.2%
same,T/C,"[1]; second study, single injection 5 mg/kg day 1",57%
same,body weight loss,"[1]; second study, single injection 7.5 mg/kg",13.2%
same,T/C,"[1]; second study, single injection 7.5 mg/kg day 1",46%
same,body weight loss,"[1]; second study, single injection 10 mg/kg",18.7%
same,T/C,"[1]; second study, single injection 10 mg/kg day 1",37%
same,body weight loss,"[1]; second study, single injection 12.5 mg/kg",15.5%
same,T/C,"[1]; second study, single injection 12.5 mg/kg day 1",22%
same,body weight loss,"[1]; second study, single injection 15 mg/kg",11.7%
same,T/C,"[1]; second study, single injection 15 mg/kg day 1",18%
same,body weight lost,[2]; discodermolide single 15 mg/kg iv,10%
"CC(=O)O[C@H]1C(=O)[C@@]2(C)[C@H]([C@H](OC(=O)c3ccccc3)[C@]3(O)C[C@H](OC(=O)[C@H](O)[C@@H](NC(=O)c4ccccc4)c4ccccc4)C(C)=C1C3(C)C)[C@]1(OC(C)=O)CO[C@@H]1C[C@@H]2O [paclitaxel, reference compound]",T/C,"[1]; first study, paclitaxel 15 mg/kg daily for the first 5 days",82%
same,T/C,"[1]; second study, paclitaxel iv once daily for five days, p<0.01",54%
same,body weight lost,[2]; paclitaxel iv 15 mg/kg once daily for 5 days,5%
